Data: article PMC9519446, “Discovery of an Orally Active Benzoxaborole Prodrug Effective in the Treatment of Chagas Disease in Non-human Primates” (Nature microbiology, 2022)

Legend:
[1] = Luminex-based multiplex serological assay (IgG to recombinant T. cruzi proteins); assay type: in vivo, rhesus macaques (Macaca mulatta); conditions: treated animal T19
Description: (§1) Luminex-based multiplex serological assays were performed as previously described, [17]. For a number of smaller proteins, fusions of up to 2 individual genes are employed for some target proteins in order to expand the array of antibodies being detected while controlling costs and complexity of the assay. (TritrypDb.org identifiers: Tc1= fusion of TcBrA4_0116860 and TcYC6_0028190; Tc2= fusion of TcBrA4_0088420 and TcBrA4_0101960; Tc3 = fusion of TcBrA4_0104680 and TcBrA4_0101980; Tc4= fusion of TcBrA4_0028480 and TcBrA4_0088260; Tc5 = fusion of TcYC6_0100010 and TcBrA4_0074300; Tc7 = fusion of TcYC6_0083710 and TcBrA4_0130080; Tc8 = TcYC6_0037170; Tc11 = TcYC6_0124160; Tc17 = fusion of TcBrA4_0028230 and TcBrA4_0029760; Kn107 = TcCLB.508355.250; G10 = TcCLB.504199.20). Macaque antibody binding to individual beads in the Multiplex assays was detected with donkey anti-human IgG (H+L) conjugated to phycoerythrin (Jackson ImmunoResearch) in a 1:200 dilution.

[2] = test system: recombinant T. cruzi proteins; test: as above; assay type: in vivo, rhesus macaques (Macaca mulatta); conditions: for IgG response to G10 (36) / IgG response to Kn107 (20) / IgG response to Tc1 (3) / IgG response to Tc2 (6) / IgG response to Tc3 (11) / IgG response to Tc4 (16) / IgG response to Tc5 (22) / IgG response to Tc7 (27) / IgG response to Tc8 (31) / IgG response to Tc11 (35) / IgG response to Tc17 (51) / IgG response to Tc lysate (50): treated animal T19
Description: as §1

In the case of `Cc1c(C(=O)N[C@H](C(=O)OCC2CCOCC2)C(C)C)ccc2c1B(O)OC2` [AN15368], the “IgG response to GFP (58)” value ([1]; 2017-09-13) is reported as 58.5, the “IgG response to GFP (58)” value ([1]; 2017-11-17) is reported as -25.0 and the “IgG response to GFP (58)” value ([1]; 2017-12-06) is reported as 27.0. The “IgG response to GFP (58)” value ([1]; 2017-12-20) was -24.3, the “IgG response to GFP (58)” value ([1]; 2018-01-09) was 103.5 and the “IgG response to GFP (58)” value ([1]; 2018-01-23) was -17.8. The “IgG response to GFP (58)” value ([1]; 2018-02-27) was -110.5, the “IgG response to GFP (58)” value ([1]; 2018-03-28) was -15.8 and the “IgG response to GFP (58)” value ([1]; 2019-02-19) was -19.0. The “IgG response to GFP (58)” value ([1]; 2020-06-18) was -50.3, the “IgG response to GFP (58)” value ([1]; 2021-05-20) was -25.5 and the “IgG levels to recombinant T. cruzi proteins over time” value ([2]; treated NHP, up to 42 months after end of treatment) was “Declining IgG levels”. For the same compound, the “IgG response to G10 (36)” value ([2]; 2017-09-13) was 45.3, the “IgG response to Kn107 (20)” value ([2]; 2017-09-13) was 5.3 and the “IgG response to Tc1 (3)” value ([2]; 2017-09-13) was 4561.8. The “IgG response to Tc2 (6)” value ([2]; 2017-09-13) was 786.0, the “IgG response to Tc3 (11)” value ([2]; 2017-09-13) was -22.8 and the “IgG response to Tc4 (16)” value ([2]; 2017-09-13) was 35.3. The “IgG response to Tc5 (22)” value ([2]; 2017-09-13) was -9.5, the “IgG response to Tc7 (27)” value ([2]; 2017-09-13) was 2389.8 and the “IgG response to Tc8 (31)” value ([2]; 2017-09-13) was 14652.0. For the same compound, the “IgG response to Tc11 (35)” value ([2]; 2017-09-13) was 292.3, the “IgG response to Tc17 (51)” value ([2]; 2017-09-13) was 1360.0 and the “IgG response to Tc lysate (50)” value ([2]; 2017-09-13) was 2591.5. For the same compound, the “IgG response to G10 (36)” value ([2]; 2017-11-17) was 2.8, the “IgG response to Kn107 (20)” value ([2]; 2017-11-17) was 7.0 and the “IgG response to Tc1 (3)” value ([2]; 2017-11-17) was 2671.5. For the same compound, the “IgG response to Tc2 (6)” value ([2]; 2017-11-17) was 364.3, the “IgG response to Tc3 (11)” value ([2]; 2017-11-17) was 25.0 and the “IgG response to Tc4 (16)” value ([2]; 2017-11-17) was 39.3. The “IgG response to Tc5 (22)” value ([2]; 2017-11-17) was -11.5, the “IgG response to Tc7 (27)” value ([2]; 2017-11-17) was 1520.3 and the “IgG response to Tc8 (31)” value ([2]; 2017-11-17) was 12143.5. The “IgG response to Tc11 (35)” value ([2]; 2017-11-17) was 154.0, the “IgG response to Tc17 (51)” value ([2]; 2017-11-17) was 1317.5 and the “IgG response to Tc lysate (50)” value ([2]; 2017-11-17) was 1854.3. The “IgG response to G10 (36)” value ([2]; 2017-12-06) was 38.0, the “IgG response to Kn107 (20)” value ([2]; 2017-12-06) was 21.8 and the “IgG response to Tc1 (3)” value ([2]; 2017-12-06) was 2769.0. For the same compound, the “IgG response to Tc2 (6)” value ([2]; 2017-12-06) was 433.8, the “IgG response to Tc3 (11)” value ([2]; 2017-12-06) was -25.8 and the “IgG response to Tc4 (16)” value ([2]; 2017-12-06) was 11.8. For the same compound, the “IgG response to Tc5 (22)” value ([2]; 2017-12-06) was 33.5, the “IgG response to Tc7 (27)” value ([2]; 2017-12-06) was 1546.5 and the “IgG response to Tc8 (31)” value ([2]; 2017-12-06) was 12008.3. For the same compound, the “IgG response to Tc11 (35)” value ([2]; 2017-12-06) was 211.8, the “IgG response to Tc17 (51)” value ([2]; 2017-12-06) was 1420.3 and the “IgG response to Tc lysate (50)” value ([2]; 2017-12-06) was 1538.8. For the same compound, the “IgG response to G10 (36)” value ([2]; 2017-12-20) was -55.8, the “IgG response to Kn107 (20)” value ([2]; 2017-12-20) was 36.8 and the “IgG response to Tc1 (3)” value ([2]; 2017-12-20) was 2355.8. For the same compound, the “IgG response to Tc2 (6)” value ([2]; 2017-12-20) was 410.8, the “IgG response to Tc3 (11)” value ([2]; 2017-12-20) was 34.8 and the “IgG response to Tc4 (16)” value ([2]; 2017-12-20) was 99.0. For the same compound, the “IgG response to Tc5 (22)” value ([2]; 2017-12-20) was 41.0, the “IgG response to Tc7 (27)” value ([2]; 2017-12-20) was 1365.3 and the “IgG response to Tc8 (31)” value ([2]; 2017-12-20) was 9274.0. For the same compound, the “IgG response to Tc11 (35)” value ([2]; 2017-12-20) was 116.0, the “IgG response to Tc17 (51)” value ([2]; 2017-12-20) was 1322.5 and the “IgG response to Tc lysate (50)” value ([2]; 2017-12-20) was 1584.0. The “IgG response to G10 (36)” value ([2]; 2018-01-09) was 36.5, the “IgG response to Kn107 (20)” value ([2]; 2018-01-09) was 76.0 and the “IgG response to Tc1 (3)” value ([2]; 2018-01-09) was 3757.5. The “IgG response to Tc2 (6)” value ([2]; 2018-01-09) was 565.5, the “IgG response to Tc3 (11)” value ([2]; 2018-01-09) was 64.8 and the “IgG response to Tc4 (16)” value ([2]; 2018-01-09) was 81.0. For the same compound, the “IgG response to Tc5 (22)” value ([2]; 2018-01-09) was -22.0, the “IgG response to Tc7 (27)” value ([2]; 2018-01-09) was 1442.3 and the “IgG response to Tc8 (31)” value ([2]; 2018-01-09) was 13021.3. For the same compound, the “IgG response to Tc11 (35)” value ([2]; 2018-01-09) was 357.0, the “IgG response to Tc17 (51)” value ([2]; 2018-01-09) was 2026.0 and the “IgG response to Tc lysate (50)” value ([2]; 2018-01-09) was 2194.3.
